This is an account of results in patent US9896441B2 (Lycera Corporation, priority 2014, dated 2018).

In this assay the target is T1, RORγ-LBD (Homo sapiens, UniProt P51449).
T1 construct: made in house; host or cells: SF9 cells (baculovirus); used as diluted lysate
T1 sequence (P51449 269-508 limits assumed): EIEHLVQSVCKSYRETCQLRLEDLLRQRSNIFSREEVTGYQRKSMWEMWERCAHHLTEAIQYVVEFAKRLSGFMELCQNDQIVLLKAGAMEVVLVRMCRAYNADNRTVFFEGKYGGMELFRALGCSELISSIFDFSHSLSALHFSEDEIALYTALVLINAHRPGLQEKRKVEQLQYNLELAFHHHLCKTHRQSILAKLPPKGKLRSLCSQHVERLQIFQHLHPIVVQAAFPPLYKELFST
In words: RORγ-Ligand Binding Domain (LBD) TR-FRET Assay. Format: biochemical. As for the experimental part: Assay procedures and results are described below.
HIS-tagged RORγ-LBD protein was expressed in SF9 cells using a baculovirus expression system. The lysate was diluted in assay buffer (50 mM Tris pH 7.0, 50 mM KCl, 1 mM EDTA, 0.1 mM DTT, 0.01% BSA) to obtain RORγ-LBD final concentration of ˜3 nM in a 384-well assay plate (need to titrate for each batch of protein).
A stock of biotinylated-LXXLL peptide from coactivator SRC1 (Biotin-[…]) was prepared in assay buffer and added to each well (200 nM final concentration). […] RORγ antagonist ursolic acid was also included at a final concentration of 2 μM. Compounds were diluted in DMSO and further diluted in assay buffer with a final DMSO concentration at 1%.
(In general: In TR-FRET formats the signal depends on donor and acceptor labels being close together.)

SMILES strings stand for the structures. Values joined by “and” are separate entries in the source; they are usually repeats but may differ in a detail not shown here. Equal values may be shown once.

One may read the EC50 as the concentration giving half of the maximal effect. Lower therefore signals an effect from little substance. Turning to `O=S(=O)(c1cccc(C(F)(F)F)c1)N1CCCc2cc(O[C@@H]3CCc4ccccc43)ccc21` [Example 25U, (R)-6-((2,3-dihydro-1H-inden-1-yl)oxy)-1-((3-(trifluoromethyl)-phenyl)sulfonyl)-1,2,3,4-tetrahydroquinoline], the EC50 (RORγ-LBD TR-FRET) was more than 10 µM.
As for `O=S(=O)(c1cccc(C(F)(F)F)c1)N1CCCc2cc(O[C@H]3CCc4ccccc43)ccc21` [Example 25V, (S)-6-((2,3-dihydro-1H-inden-1-yl)oxy)-1-((3-(trifluoromethyl)-phenyl)sulfonyl)-1,2,3,4-tetrahydroquinoline], under “RORγ-LBD TR-FRET”, the concentration for a half-maximal effect (EC50) fell in the range of 0.5 to 5 µM.
Still for that read-out and setting: the result for `O=S(=O)(c1cccc(C(F)(F)F)c1)N1CCCc2cc(Cl)c(OCc3c(F)cccc3Cl)cc21` [Example 28A] reads less than 0.5 µM.
Regarding `O=S(=O)(c1cccc(C(F)(F)F)c1)N1CCCc2cc(C3CC3)c(OCc3c(F)cccc3Cl)cc21` [Example 28B], under “RORγ-LBD TR-FRET”, the EC50 was less than 0.5 µM.
For the setting “RORγ-LBD TR-FRET”, `O=S(=O)(c1cccc(C(F)(F)F)c1)N1CCCc2cc(C3CC3)c(OCc3c(F)cccc3C3CC3)cc21` [Example 28C] returned a concentration giving a half-maximal response (EC50) of less than 0.5 µM.
On to `Cc1cc2c(cc1OCc1c(F)cccc1Cl)N(S(=O)(=O)c1cccc(C(F)(F)F)c1)CCC2` [Example 28D], for which the EC50 (RORγ-LBD TR-FRET) was less than 0.5 µM.
For the setting “RORγ-LBD TR-FRET”, `CCn1cc(S(=O)(=O)N2C[C@H](CNC(C)=O)Oc3ccc(NCc4c(F)cccc4Cl)cc32)c(OCCO)n1` [Example 28E] came in with a concentration giving a half-maximal response (EC50) of less than 0.5 µM.
The molecule `O=S(=O)(c1cccc(C(F)(F)F)c1)N1CCCc2cc(Br)c(OCc3c(F)cccc3Cl)cc21` [Example 28F] returned an EC50 (RORγ-LBD TR-FRET) of less than 0.5 µM.
For the molecule `CCOc1nn(CC)cc1S(=O)(=O)N1C[C@H](CNC(C)=O)Oc2ccc(NCc3c(F)cccc3Cl)cc21` [Example 28G], the EC50 (RORγ-LBD TR-FRET) is less than 0.5 µM.
As for `C/C(=C\c1ccc2c(c1)N(S(=O)(=O)c1cc(C3CC3)cnc1OCCO)C[C@H](CCC(=O)O)O2)c1c(F)cccc1Cl` [Example 86BC, (S,E)-3-(6-(2-(2-chloro-6-fluorophenyl)prop-1-en-1-yl)-4-((5-cyclopropyl-2-(2-hydroxyethoxy)pyridin-3-yl)sulfonyl)-3,4-dihydro-2H-benzo[b][1,4]oxazin-2-yl)propanoic acid], the half-maximal effective concentration (EC50) (with 2 μM ursolic acid (RORγ antagonist), highest test concentration 10 μM) is less than 0.5 µM.
`O=C(O)CC[C@H]1CN(S(=O)(=O)c2cccc(C(F)(F)F)c2)c2cc(/C=C/c3cccc4cn[nH]c34)ccc2O1` [Example 89BL, (S,E)-3-(6-(2-(1H-indazol-7-yl)vinyl)-4-((3-(trifluoromethyl)phenyl)sulfonyl)-3,4-dihydro-2H-benzo[b][1,4]oxazin-2-yl)propanoic acid]: the concentration for a half-maximal effect (EC50) (RORγ-LBD TR-FRET) was more than 10 µM.
For `O=C(O)CC[C@H]1CN(S(=O)(=O)c2cccc(C(F)(F)F)c2)c2cc(/C=C/c3ccnn4cccc34)ccc2O1` [Example 89BM, (S,E)-3-(6-(2-(pynolo[1,2-b]pyridazin-4-yl)vinyl)-4-((3-(trifluoromethyl)phenyl)sulfonyl)-3,4-dihydro-2H-benzo[b][1,4]oxazin-2-yl)propanoic acid], the EC50 (RORγ-LBD TR-FRET) lay within 0.5 to 5 µM.
`Cc1noc(C)c1/C=C/c1ccc2c(c1)N(S(=O)(=O)c1cccc(C(F)(F)F)c1)C[C@H](CCC(=O)O)O2` [Example 89BR, (S,E)-3-(6-(2-(3,5-dimethylisoxazol-4-yl)vinyl)-4-((3-(trifluoromethyl)phenyl)sulfonyl)-3,4-dihydro-2H-benzo[b][1,4]-oxazin-2-yl)propanoic acid] returned an EC50 (RORγ-LBD TR-FRET) of more than 10 µM.
`COC(=O)CC[C@H]1CN(S(=O)(=O)c2cccc(C(F)(F)F)c2)c2cc(/C=C/c3c(C)noc3C)ccc2O1` [Example 89BS, (S,E)-methyl 3-(6-(2-(3,5-dimethylisoxazol-4-yl)vinyl)-4-((3-(trifluoromethyl)phenyl)-sulfonyl)-3,4-dihydro-2H-benzo[b][1,4]-oxazin-2-yl)propanoate]: the concentration for a half-maximal effect (EC50) (RORγ-LBD TR-FRET) is less than 0.5 µM.
In turn, `O=C(O)CC[C@H]1CN(S(=O)(=O)c2cccc(C(F)(F)F)c2)c2cc(/C=C/c3c[nH]nc3C(F)(F)F)ccc2O1` [Example 89BT, (S,E)-3-(6-(2-(3-(trifluoromethyl)-1H-pyrazol-4-yl)vinyl)-4-((3-(trifluoromethyl)phenyl)-sulfonyl)-3,4-dihydro-2H-benzo[b][1,4]oxazin-2-yl)propanoic acid] registered an EC50 (RORγ-LBD TR-FRET) of more than 10 µM.
On the same count and under the same terms, the result for `Cn1ccnc1/C=C/c1ccc2c(c1)N(S(=O)(=O)c1cccc(C(F)(F)F)c1)C[C@H](CCC(=O)O)O2` [Example 89BU, (S,E)-3-(6-(2-(1-methyl-1H-imidazol-2-yl)vinyl)-4-((3-(trifluoromethyl)phenyl)sulfonyl)-3,4-dihydro-2H-benzo[b][1,4]-oxazin-2-yl)propanoic acid] reads 5 to 10 µM.
In the case of `CS(=O)(=O)c1cccc(/C=C/c2ccc3c(c2)N(S(=O)(=O)c2cccc(C(F)(F)F)c2)C[C@H](CCC(=O)O)O3)c1` [Example 89BV, (S,E)-3-(6-(3-(methylsulfonyl)-styryl)-4((3-(trifluoromethyl)-phenyl)sulfonyl)-3,4-dihydro-2H-benzo[b][1,4]oxazin-2-yl)propanoic acid], the EC50 (RORγ-LBD TR-FRET) was more than 10 µM.
Take `CC(=O)c1cccc(/C=C/c2ccc3c(c2)N(S(=O)(=O)c2cccc(C(F)(F)F)c2)C[C@H](CCC(=O)O)O3)n1` [Example 89BX, (S,E)-3-(6-(2-(6-acetylpyridin-2-yl)vinyl)-4-((3-(trifluoromethyl)-phenyl)sulfonyl)-3,4-dihydro-2H-benzo[b][1,4]oxazin-2-yl)propanoic acid]: for the setting “RORγ-LBD TR-FRET”, the 50% effective concentration (EC50) is more than 10 µM.
As to `Cn1cc(/C=C/c2ccc3c(c2)N(S(=O)(=O)c2cccc(C(F)(F)F)c2)C[C@H](CCC(=O)O)O3)c(C(F)(F)F)n1` [Example 89BY, (S,E)-3-(6-(2-(1-methyl-3-(trifluoromethyl)-1H-pyrazol-4-yl)vinyl)-4-((3-(trifluoromethyl)-phenyl)sulfonyl)-3,4-dihydro-2H-benzo[b][1,4]oxazin-2-yl)propanoic acid], the EC50 (RORγ-LBD TR-FRET) was more than 10 µM.
The same measure, in the same setting: the result for `CCCn1ccc(/C=C/c2ccc3c(c2)N(S(=O)(=O)c2cccc(C(F)(F)F)c2)C[C@H](CCC(=O)O)O3)n1` [Example 89BZ, (S,E)-3-(6-(2-(1-propyl-1H-pyrazol-3-yl)vinyl)-4-((3-(trifluoromethyl)phenyl)sulfonyl)-3,4-dihydro-2H-benzo[b][1,4]oxazin-2-yl)propanoic acid] reads more than 10 µM; that for `O=C(O)CC[C@H]1CN(S(=O)(=O)c2cccc(C(F)(F)F)c2)c2cc(/C=C/c3c(Cl)cc(Cl)cc3Cl)ccc2O1` [Example 89CL, (S,E)-3-(6-(2,4,6-trichlorostyryl)-4-((3-(trifluoromethyl)-phenyl)sulfonyl)-3,4-dihydro-2H-benzo[b][1,4]oxazin-2-yl)propanoic acid], 0.5 to 5 µM; that for `O=C(O)CC[C@H]1CN(S(=O)(=O)c2cccc(C(F)(F)F)c2)c2cc(/C=C/c3c(Cl)cc(OC(F)(F)F)cc3Cl)ccc2O1` [Example 89CN, (S,E)-3-(6-(2,6-dichloro-4-(trifluoromethoxy)styryl)-4-((3-(trifluoromethyl)phenyl)sulfonyl)-3,4-dihydro-2H-benzo[b][1,4]-oxazin-2-yl)propanoic acid], 0.5 to 5 µM.
`COC(=O)CC[C@H]1CN(S(=O)(=O)c2cccc(C(F)(F)F)c2)c2cc(/C=C/c3cccn4ccnc34)ccc2O1` [Example 89DE, methyl (S,E)-3-(6-(2-(imidazo[1,2-a]pyridin-8-yl)vinyl)-4-((3-(trifluoromethyl)-phenyl)sulfonyl)-3,4-dihydro-2H-benzo[b][1,4]oxazin-2-yl)propanoate]: the concentration giving a half-maximal response (EC50) (RORγ-LBD TR-FRET) is < 0.5 µM and 0.5 to 5 µM.
The same measure, in the same setting: the result for `O=C(O)CC[C@H]1CN(S(=O)(=O)c2cccc(OC(F)F)c2)c2cc(/C=C/c3nccnc3Cl)ccc2O1` [Example 89DS, (S,E)-3-(6-(2-(3-chloropyrazin-2-yl)vinyl)-4-((3-(difluoromethoxy)phenyl)sulfonyl)-3,4-dihydro-2H-benzo[b][1,4]-oxazin-2-yl)propanoic acid] reads more than 10 µM; that for `COC(=O)CC[C@H]1CN(S(=O)(=O)c2cc(C(F)(F)F)cnc2OC(C)C)c2cc(/C=C/c3c(F)cccc3Cl)ccc2O1` [Example 89FL, methyl (S,E)-3-(6-(2-chloro-6-fluorostyryl)-4-((2-isopropoxy-5-(trifluoromethyl)pyridin-3-yl)sulfonyl)-3,4-dihydro-2H-benzo[b][1,4]oxazin-2-yl)propanoate], 0.5 to 5 µM.
Still for that read-out and setting: for `CCOc1ncc(C(F)(F)F)cc1S(=O)(=O)N1C[C@H](CCC(=O)OC)Oc2ccc(C=C3CCCCC3)cc21` [Example 95A, methyl (S)-3-(6-(cyclohexylidenemethyl)-4-((2-ethoxy-5-(trifluoromethyl)pyridin-3-yl)sulofnyl)-3,4-dihydro-2H-benzo[b][1,4]oxazin-2-yl)propanoate] the value was 0.5 to 5 µM.
Regarding `O=C(O)CC[C@H]1CN(S(=O)(=O)c2cc(C(F)(F)F)cnc2OCCO)c2cc(C=C3CCC(O)CC3)ccc2O1` (stereo partly drawn) [Example 95V, 3-((2S)-6-((4-hydroxycyclohexylidene)-methyl)-4-((2-(2-hydroxyethoxy)-5-(trifluoromethyl)pyridin-3-yl)sulfonyl)-3,4-dihydro-2H-benzo[b][1,4]oxazin-2-yl)propanoic acid], where the note is “RORγ-LBD TR-FRET”, the EC50 is 0.5 to 5 µM.
